Reference: patent publication US20100029654A1, “CARDIOVASCULAR COMPOSITIONS AND USE OF THE SAME FOR THE TREATMENT OF ALZHEIMER'S DISEASE” (MOUNT SINAI SCHOOL OF MEDICINE, priority 2006, published 2010)
Structures can show the parent of a compound that is named as a salt. Where two headings read alike, the source gives them in different places.

Key:
[1] = test system: primary cortico-hippocampal neuron cultures; assay: MTT in primary screening
[2] = test system: Aβ1-40; assay: Aβ1-40 content in conditioned medium of primary cortico-hippocampal neuron cultures from Tg2576 mice (ELISA; primary and secondary dose-response screening); type: cell-based, mouse; settings: for activity at 100 µM / EC50: Mus musculus; for activity at 100 µM: 24 h, read-out: Ab1-40 (% of ctl); for activity at 100 µM / Ab1-40 (% of ctl): drug 100 μM; for reduced Aβ1-40: <85% of ctl
How it was run: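 Primary cortico-hippocampal neurons from embryonic Tg2576 mice were plated at 1.0×10^5 cells per well on poly-D-lysine-coated 96-well plates in Neurobasal with 2% B27, 0.5 mM L-glutamine and 1% penicillin-streptomycin. Cultures received drug in 1% DMSO, and Aβ1-40 in the conditioned medium was measured by BioSource ELISA 24 hours after treatment, relative to vehicle controls.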

[3] = test system: Aβ1-42; assay: Aβ1-42 content in conditioned medium of primary cortico-hippocampal neuron cultures from Tg2576 mice (ELISA; primary and secondary dose-response screening); type: cell-based, mouse; settings: Mus musculus; for activity at 100 µM: primary screening, drug 100 μM, Tg2576 neuron cultures, table sorted by Aβ1-42, read-out: Ab1-42 (% of ctl); for EC50: Neuron
[4] = test system: primary cortico-hippocampal neuron cultures; assay: lactate dehydrogenase (LDH) activity assay in parallel neuron cultures; settings: for LDH at E-5M % of change: drug at E-5M
[5] = test system: Aβ1-42; assay: Aβ1-42 content in conditioned medium of primary cortico-hippocampal neuron cultures from Tg2576 mice (ELISA; primary and secondary dose-response screening); type: cell-based, mouse; settings: for Ab1-42 (% of ctl) / activity at 100 µM: drug 100 μM; for activity at 100 µM: Mus musculus, Neuron, 24 h, read-out: Ab1-42 (% of ctl); for reducing Aβ1-42: <85% of ctl
How it was run: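 This screen tested cardiovascular drugs for Aβ-lowering in Tg2576 embryonic cortico-hippocampal neuron cultures plated at 1.0×10^5 cells per well in poly-D-lysine-coated 96-well plates with Neurobasal/B27 medium. Drugs at 100 μM were added directly to the medium in duplicate, with 1% DMSO alone as the control. Conditioned medium was then collected, and its Aβ1-42 level was quantified with BioSource ELISA kits.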

[6] = Primary Screening, table sorted by Aβ1-40
[7] = primary screening, table sorted by Aβ1-42
[8] = primary screening, Tg2576 neuron cultures, table sorted by Aβ1-42
[9] = Neuron, Primary Screening, table sorted by Aβ1-40
[10] = Neuron, primary screening, Tg2576 neuron cultures, table sorted by Aβ1-42
[11] = Neuron, secondary dose-response screening 0.01-100 μM, 24 hours, read-out: EC50 (molar) Aβ1-40
[12] = 24 h, secondary dose-response screening 0.01-100 μM, 24 hours, read-out: EC50 (molar) Aβ1-42

Compound	MTT (% of ctl) [1, 6]	MTT (% of ctl) [1, 7]	reduced Aβ1-40 ([2]; primary screening)	LDH (% of ctl) [4, 6]	LDH (% of ctl) [4, 7]	activity at 100 µM [2, 9] [%]	activity at 100 µM [2, 10] [%]	activity at 100 µM [5, 6] [%]	activity at 100 µM [5, 8] [%]	reducing Aβ1-42 ([5]; primary screening)	other results
CO[C@H]1[C@H](O)[C@H](O[C@H]2CC[C@@]3(C)[C@H](CC[C@@H]4[C@@H]3CC[C@]3(C)[C@@H](C5=CC(=O)OC5)CC[C@]43O)C2)O[C@@H](C)[C@@H]1O [Neriifolin]	101.2 % of ctl	101.2 % of ctl	reduced Aβ1-40	110.8 % of ctl	110.8 % of ctl	–	–	–	–	–	activity at 100 µM [2, 8]: 79.7%; Ab1-40 (% of ctl) [2, 6]: 79.7 % of ctl; activity at 100 µM ([3]; 24 h): 90.3%; Ab1-42 (% of ctl) [5, 6]: 90.3 % of ctl
COc1ccccc1OCCNCC(O)COc1cccc2[nH]c3ccccc3c12 (centres unmarked) [Carvedilol]	66.7 % of ctl	66.7 % of ctl	reduced Aβ1-40	148.6 % of ctl	148.6 % of ctl	38.3	38.3	30.8	30.8	useful in reducing Aβ1-42	EC50 ([2]; Neuron, Table IV, dose-response 0.01-100 μM, read-out: EC50 (M): Ab-lowering activity Abeta1-40): 6.61e-05 M; EC50 [2, 11]: 6.61e-05 M; EC50 ([3]; 24 h, conditioned medium of primary cortico-hippocampal neuron cultures from Tg2576 embryos, 24 hours after treatment, relative to vehicle (1% DMSO) control, read-out: EC50 (molar) Aβ1-42): 0.000132 M; EC50 [3, 12]: 0.000132 M; EC50 ([3]; Table IV, dose-response 0.01-100 μM, read-out: EC50 (M): Ab-lowering activity): 0.000132 M; LDH (at 5F-5 M) ([4]; Table IV): no change
CC(NCCC(c1ccccc1)c1ccccc1)c1ccccc1 (centres unmarked) [Fendiline Hydrochloride]	7.7 % of ctl	7.7 % of ctl	reduced Aβ1-40	1881.4 % of ctl	1881.4 % of ctl	7.9	7.9	26.2	26.2	useful in reducing Aβ1-42	EC50 [2, 11]: 1.25e-05 M; EC50 [3, 12]: 4.2e-05 M; LDH at E-5M % of change [4]: −3.0%
CCCCCCCCNC(C)C(O)c1ccc(SC(C)C)cc1 (centres unmarked) [Suloctidil]	77.7 % of ctl	77.7 % of ctl	reduced Aβ1-40	396.1 % of ctl	396.1 % of ctl	1.8	1.8	4.6	4.6	useful in reducing Aβ1-42	EC50 [2, 11]: 1.45e-05 M; EC50 [3, 12]: 2.13e-05 M; LDH at E-5M % of change [4]: −3.4%
COc1ccc(CCN(C)CCCC(C#N)(c2ccc(OC)c(OC)c2)C(C)C)cc1OC (centres unmarked) [Verapamil]	–	–	reduced Aβ1-40	92.5 % of ctl	92.5 % of ctl	–	–	–	–	–	activity at 100 µM [2, 8]: 70.9%; Ab1-40 (% of ctl) [2, 6]: 70.9 % of ctl; activity at 100 µM ([3]; 24 h): 101%; Ab1-42 (% of ctl) [5, 6]: 101.1 % of ctl
CCN(CC)CCOC(=O)C(Cc1cccc2ccccc12)CC1CCCO1 (centres unmarked) [Nafronyl Oxalate]	103.2 % of ctl	103.2 % of ctl	–	96.6 % of ctl	96.6 % of ctl	134	134	145	145	–	–
C=C[C@H]1C[N@@]2CC[C@H]1C[C@@H]2[C@@H](O)c1ccnc2ccc(OC)cc12 [Quinidine Gluconate]	46.8 % of ctl	46.8 % of ctl	reduced Aβ1-40	357.6 % of ctl	357.6 % of ctl	63.3	63.3	70	70	useful in reducing Aβ1-42	–
CC(=O)Nc1nnc(S(N)(=O)=O)s1 [Acetazolamide]	78.0 % of ctl	78.0 % of ctl	–	173.5 % of ctl	173.5 % of ctl	115	115	118	118	–	–
CCOc1ccccc1OCCN[C@H](C)Cc1ccc(OC)c(S(N)(=O)=O)c1.Cl [Tamsulosin Hydrchloride]	96.1 % of ctl	96.1 % of ctl	–	102.2 % of ctl	102.2 % of ctl	–	–	–	–	–	Ab1-40 (% of ctl) [2, 6]: 106.5 % of ctl; Ab1-40 (% of ctl) [2, 8]: 106.5 % of ctl; Ab1-42 (% of ctl) [5, 6]: 91.8 % of ctl; Ab1-42 (% of ctl) [5, 8]: 91.8 % of ctl
NS(=O)(=O)c1cc2c(cc1Cl)NC(C1CC3C=CC1C3)NS2(=O)=O (centres unmarked) [Cyclothiazide]	97.7 % of ctl	97.7 % of ctl	reduced Aβ1-40	110.3 % of ctl	110.3 % of ctl	71.1	71.1	75	75	useful in reducing Aβ1-42	–
CCC(C(N)=O)c1ccccc1 (centres unmarked) [Fenbutyramide]	108.6 % of ctl	108.6 % of ctl	–	135.0 % of ctl	135.0 % of ctl	91.6	91.6	96.3	96.3	–	–
CNC1(C)C2CCC(C2)C1(C)C (centres unmarked) [Mecamylamine Hydrochloride]	114.9 % of ctl	114.9 % of ctl	–	97.0 % of ctl	97.0 % of ctl	124	124	130	130	–	–
C[N+]1(CCCCC[N+]2(C)CCCC2)CCCC1 [Pentolinium Tartrate]	103.8 % of ctl	103.8 % of ctl	–	118.0 % of ctl	118.0 % of ctl	121	121	134	134	–	–
C[C@H](CS)C(=O)N1CCC[C@H]1C(=O)O [Captopril]	62.3 % of ctl	62.3 % of ctl	–	120.2 % of ctl	120.2 % of ctl	104	104	99.7	99.7	–	–
